Reference: patent US20250099420A1, “SMALL MOLECULE MODULATORS OF GPR139 COMPLEX” (University of Florida Research Foundation, Incorporated, priority 2022, published 2025)
Read-outs that look alike come from different tables or passages of the source.

What was measured:
[1] = molecular target: T1, GPR139 (Homo sapiens, UniProt Q6DWJ6); assay: GPR139 Agonist titration / agonist counterscreen assay (calcium detection, HEK-GPR139 cells); assay type: cell-based; set-up: expressed in transfected cells; host or cells: HEK Aequorin cells, Maxcyte transient transfection; conditions: GPR139 Agonist Activity; for Averaged Max % Response (±St. Dev.): activity relative to known control; for EC50: read-out: EC50
T1 sequence (Q6DWJ6 1-353): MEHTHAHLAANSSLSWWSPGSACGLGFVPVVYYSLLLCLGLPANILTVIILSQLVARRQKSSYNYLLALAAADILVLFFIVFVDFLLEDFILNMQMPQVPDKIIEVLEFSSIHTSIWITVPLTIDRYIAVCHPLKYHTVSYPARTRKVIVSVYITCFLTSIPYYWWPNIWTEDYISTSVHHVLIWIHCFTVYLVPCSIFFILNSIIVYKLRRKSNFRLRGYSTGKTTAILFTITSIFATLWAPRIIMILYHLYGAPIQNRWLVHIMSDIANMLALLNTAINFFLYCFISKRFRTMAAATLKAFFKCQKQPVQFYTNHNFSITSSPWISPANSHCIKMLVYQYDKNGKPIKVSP
Protocol: GPR activity was assessed using a calcium detection assay. […] Negative control samples were treated with DMSO. […] Intracellular calcium was measured using Calcium 5.

[2] = test system: parental HEK cells; assay: HEK parental Agonist Counterscreen Assay (non-transfected cells); assay type: cell-based; conditions: for Averaged Max % Response (±St. Dev.): activity relative to known control
Excerpt: The high control for the agonist counterscreen was Forskolin not acetylcholine.

[3] = values printed in E-notation without unit
[4] = HEK Agonist Activity section of Table 4 (parental HEK counterscreen)
[5] = Homo sapiens, HEK293, HEK Agonist Activity section of Table 4 (parental HEK counterscreen)
[6] = Homo sapiens, HEK293, HEK Agonist Activity, parental non-transfected HEK cells

Row | SMILES | Averaged Max % Response (±St. Dev.) [1] [%] | Lipophilic Efficiency (logD) ([1]; based on logD) | Lipophilic Efficiency (logP) ([1]; based on logP) | Hill Slope ([1]; fitted dose-response curve) | Efficiency Ligand ([1]; ligand efficiency) | EC50 [1, 3] [nM] | Lipophilic Efficiency (logD) ([2]; HEK Agonist Activity section) | Lipophilic Efficiency (logP) ([2]; HEK Agonist Activity section) | EC50 [2, 4] [nM] | Averaged Max % Response (±St. Dev.) ([2]; HEK Agonist Activity section) [%] | EC50 [2, 5] [nM] | Lipophilic Efficiency (logD) ([2]; HEK Agonist Activity) | Lipophilic Efficiency (logP) ([2]; HEK Agonist Activity) | Averaged Max % Response (±St. Dev.) ([2]; HEK Agonist Activity) [%] | EC50 [2, 6] [nM] | Efficiency Ligand [1] | Hill Slope [1] | Lipophilic Efficiency (logD) [1] | Lipophilic Efficiency (logP) [1] | EC50 ([1]; HEK-GPR139 cells) [nM]
1 | CC(NC(=O)c1ccc2c(c1)N(Cc1ccccc1)C(=O)C[S+]2[O-])c1ccccc1 (stereo not drawn) [SR-01000129845] | 98.04 ± 26.06 | 3.96 | 3.96 | 1.01 | 0.32 | 138 | 1.95 | 1.95 | > 14100 | 8.19 ± 5.50 | – | – | – | – | – | – | – | – | – | –
2 | CC(CCc1ccccc1)NC(=O)c1ccc2c(c1)C(Cc1ccccc1)C(=O)C[S+]2[O-] (stereo not drawn) [SR-01000129880] | 114.68 ± 22.09 | 3.62 | 3.61 | 0.44 | 0.32 | 56.1 | 1.22 | 1.21 | – | 0.02 ± 5.29 | > 14100 | – | – | – | – | – | – | – | – | –
3 | CCCCN(C)C(=O)CCC(=O)NNC1Cc2ccccc2C2=CC(C)=CC21 (stereo not drawn) [SR-01000131962] | 113.53 ± 12.66 | 4.28 | 4.28 | 1.14 | 0.34 | – | 2.37 | 2.37 | – | −5.39 ± 5.10 | > 14100 | – | – | – | – | – | – | – | – | –
4 | O=C(Cn1nc(Cc2ccncc2)c2ccccc2c1=O)NC(O)CCc1ccccc1 (stereo not drawn) [SR-01000134029] | 100.82 ± 13.50 | 4.27 | 4.27 | – | 0.34 | – | – | – | – | – | – | 1.41 | 1.41 | 19.31 ± 4.61 | > 14100 | – | – | – | – | –
5 | CC(CCc1ccccc1)NC(=O)Cn1ncc2c1-c1ccccc1OC2 (stereo not drawn) [SR-01000134913] | 96.78 ± 14.90 | – | – | – | – | – | 1.52 | 1.52 | – | −5.82 ± 11.13 | > 14100 | – | – | – | – | 0.31 | 0.51 | 2.73 | 2.73 | 863
6 | O=C(Cc1ccccc1)CC1C=CC2=C1c1ccccc1CC2 (stereo not drawn) [SR-01000134941] | 109.36 ± 34.06 | 4.30 | 4.30 | 0.39 | 0.39 | – | 2.40 | 2.40 | – | 10.65 ± 6.79 | > 14100 | – | – | – | – | – | – | – | – | –
7 | C=C(CC1N=CC2=C1c1ccccc1CC2)NCc1ccc(C)cc1 (stereo not drawn) [SR-01000134947] | 111.20 ± 10.15 | 4.02 | 4.02 | 0.36 | 0.38 | – | 2.07 | 2.07 | – | 1.42 ± 10.91 | > 14100 | – | – | – | – | – | – | – | – | –
8 | CCCc1ccccc1C1=CCC(NC(=O)Cn2ncc3c2-c2ccccc2CC3)=C1 [SR-01000135037] | 95.23 ± 13.49 | 3.95 | 3.94 | 1.23 | 0.32 | – | 1.70 | 1.69 | – | −6.83 ± 12.52 | > 14100 | – | – | – | – | – | – | – | – | –
9 | Cc1cccc(NC(=O)Cn2ncc3c2-c2ccccc2OC3)n1 [SR-01000135038] | 105.92 ± 4.10 | 5.32 | 5.31 | 0.77 | 0.43 | 50.5 | 2.87 | 2.87 | – | 13.01 ± 4.86 | > 14100 | – | – | – | – | – | – | – | – | –
10 | O=C(Cn1nnc2c1-c1ccccc1OC2)Nc1cccc(Cl)c1 [SR-01000135042] | 104.44 ± 8.42 | – | – | – | – | – | 1.77 | 1.77 | – | 16.89 ± 7.08 | > 14100 | – | – | – | – | 0.37 | 0.33 | 3.32 | 3.32 | 401
11 | O=C(Cn1ncc2c1-c1ccccc1OC2)Nc1ccccn1 [SR-01000135048] | 109.25 ± 4.64 | 4.72 | 4.72 | 1.29 | 0.40 | 266 | 3.00 | 3.00 | – | 12.06 ± 16.35 | > 14100 | – | – | – | – | – | – | – | – | –
12 | Cc1ccc(NC(=O)Cn2ncc3c2-c2ccccc2OC3)cc1F [SR-01000135068] | 114.56 ± 16.65 | 4.08 | 4.08 | 0.14 | 0.40 | 61.5 | 1.72 | 1.72 | – | −6.35 ± 1.52 | > 14100 | – | – | – | – | – | – | – | – | –
13 | COc1ccc(NC(=O)Cn2ncc3c2-c2ccccc2OC3)cc1Cl [SR-01000135070] | 89.37 ± 8.48 | 4.16 | 4.16 | 0.51 | 0.38 | 82.9 | 1.93 | 1.93 | > 14100 | 7.87 ± 13.27 | – | – | – | – | – | – | – | – | – | –
14 | Cc1ccc2c(c1)-c1c(cnn1CC(=O)Nc1ccc(F)cc1)CO2 [SR-01000136273] | 78.44 ± 11.98 | – | – | – | – | – | 1.72 | 1.72 | > 14100 | −14.31 ± 5.07 | – | – | – | – | – | 0.31 | 0.56 | 2.47 | 2.47 | 2500
15 | Cc1ccc(CCNC(=O)Cn2cc3c(n2)CCCC3)cc1 [SR-01000137723] | 136.99 ± 21.58 | 5.09 | 5.09 | 0.44 | 0.52 | 5.7 | – | – | – | – | – | 1.70 | 1.70 | −4.03 ± 1.74 | > 14100 | – | – | – | – | –
